# Experimental data taken from article PMC6774872 (Cancer research, 2019).
# Test system: lactate dehydrogenase A (LDHA); measured as cellular LDH activity
# Assay: LDH activity
# Type: cell-based
substance,measurement,value
NCI-737,IC50,~100 nM
